Test results as given in patent publication US20040186021A1, “Substituted benzo-nitro-heterocycles” (priority 2001, published 2004).

How the values were obtained:
[1] = logP determination by HPLC (reversed-phase column C 18), EC Directive 79/831 Annex V.A8; format: physicochemical; details: for chromatographic logP: reversed-phase HPLC column (C 18), at pH=2; for logP a): acetonitrile, 43° C.
Method: LogP values given in Table 1 were determined in accordance with EC Directive 79/831 Annex V.A8 by HPLC (High Performance Liquid Chromatography) using a reversed-phase column (C 18). Temperature: 43° C. (a) Mobile phases for the determination in the acidic range: 0.1% aqueous phosphoric acid, acetonitrile; linear gradient from 10% acetonitrile to 90% acetonitrile—the corresponding measurement results in Table 1 are marked ^a). (b) Mobile phases for the determination in the neutral range: 0.01 molar aqueous phosphate buffer solution, acetonitrile; linear gradient from 10% acetonitrile to 90% acetonitrile—the corresponding measurement results in Table 1 are marked ^b). Calibration was carried out using unbranched alkan-2-ones (having 3 to 16 carbon atoms) with known logP values (determination of the logP values by the retention times using linear interpolation between two successive alkanones).

weeds [2] = test: Pre-emergence test (Example A); format: in vivo; details: soil sprayed 24 hours after sowing, rated after three weeks
Method: Pre-Emergence Test [table] To produce a suitable preparation of active compound, one part by weight of active compound is mixed with the stated amount of solvent, the stated amount of emulsifier is added and the concentrate is diluted with water to the desired concentration. Seeds of the test plants are sown in normal soil. After 24 hours, the soil is sprayed with the preparation of active compounds such that the particular amount of active compound desired is applied per unit area. The concentration of active compound in the spray liquor is chosen such that the particular amount of active compound desired is applied in 1000 litres of water per hectare. After three weeks, the degree of damage to the plants is rated in % damage in comparison to the development of untreated control. The figures denote: 0%=no effect (like untreated control) 100%=total destruction

weeds [3] = test: Post-emergence test (Example B); format: in vivo; details: test plants of 5-15 cm sprayed, rated after three weeks
Method: To produce a suitable preparation of active compound, one part by weight of active compound is mixed with the stated amount of solvent, the stated amount of emulsifier is added and the concentrate is diluted with water to the desired concentration.
Test plants of a height of 5-15 cm are sprayed with the preparation of active compounds such that the particular amounts of active compounds desired are applied per unit area. The concentration of the spray liquor is chosen such that the particular amounts of active compounds desired are applied in 1000 l of water/ha.
After three weeks, the degree of damage to the plants is rated in % damage in comparison to the development of the untreated control.
0%=no effect (like untreated control)

[4] = Table 1; a) acidic range: 0.1% aqueous phosphoric acid
[5] = Table 2, compounds of formula (II); a) acidic range: 0.1% aqueous phosphoric acid

| SMILES | logP a) [1, 4] | action against weeds (degree of damage to the plants) (weeds [2]) | action against weeds (degree of damage to the plants) (weeds [3]) | other results |
| --- | --- | --- | --- | --- |
| O=c1[nH]c2cc(-n3c(=O)cc(C(F)(F)F)[nH]c3=O)c(F)cc2s1 [3-(6-fluoro-2,3-dihydro-2-oxo-1,3-benzothiazol-5-yl)-6-trifluoromethyl-2,4(1H,3H)-pyrimidinedione] |  |  |  | chromatographic logP [1]: 1.48 |
| CCOC(=O)CN1C(=O)COc2ccc(-n3c(=O)cc(C(F)(F)F)n(N)c3=O)cc21 [Example 1, ethyl 6-(3-amino-3,6-dihydro-2,6-dioxo-4-trifluoromethyl-1 (2H)-pyrimidynyl)-2,3-dihydro-3-oxo-4H-1,4-benzoxazine-4-acetate] |  | very strong action against weeds | very strong action against weeds | chromatographic logP [1]: 1.9 |
| CCOC(=O)n1c(=O)sc2cc(F)c(-n3c(=O)cc(C(F)(F)F)n(N)c3=O)cc21 [Example 2, ethyl 5-(3-amino-3,6-dihydro-2,6-dioxo-4-trifluoromethyl-1(2H)-pyrimidynyl)-6-fluoro-2-oxo-3(2H)-benzothiazole carboxylate] |  |  |  | chromatographic logP [1]: 2.44 |
| CS(=O)(=O)n1c(=O)sc2cc(F)c(-n3c(=O)cc(C(F)(F)F)n(N)c3=O)cc21 [Example 3, 1-amino-3-(6-fluoro-2,3-dihydro-3-methylsulphonyl-2-oxo-5-benzothiazolyl)-6-trifluoromethyl-2,4(1H,3H)-pyrimidinedione] |  |  |  | chromatographic logP [1]: 2.16 |
| N#CCn1c(=O)sc2cc(F)c(-n3c(=O)cc(C(F)(F)F)n(N)c3=O)cc21 [Example 4] | 1.97^a) |  |  |  |
| N#CCN1C(=O)COc2cc(F)c(-n3c(=O)cc(C(F)(F)F)n(N)c3=O)cc21 [Example 5] | 1.83^a) | very strong action against weeds | very strong action against weeds |  |
| N#CCN1C(=O)COc2ccc(-n3c(=O)cc(C(F)(F)F)n(N)c3=O)cc21 [Example 6] | 1.57^a) | very strong action against weeds | very strong action against weeds |  |
| COC(=O)CN1C(=O)COc2cc(F)c(-n3c(=O)cc(C(F)(F)F)n(N)c3=O)cc21 [Example 7] | 1.90^a) | very strong action against weeds | very strong action against weeds |  |
| CCOC(=O)CN1C(=O)COc2cc(F)c(-n3c(=O)cc(C(F)(F)F)n(N)c3=O)cc21 [Example 8] | 2.14^a) | very strong action against weeds | very strong action against weeds |  |
| COC(=O)CN1C(=O)COc2ccc(-n3c(=O)cc(C(F)(F)F)n(N)c3=O)cc21 [Example 11] |  | very strong action against weeds | very strong action against weeds |  |
| Nn1c(C(F)(F)F)cc(=O)n(-c2cc3[nH]c(=O)sc3cc2F)c1=O [II-1, 1-amino-3-(6-fluoro-2,3-dihydro-2-oxo-1,3-benzothiazol-5-yl)-6-trifluoromethyl-2,4(1H,3H)-pyrimidinedione] |  |  |  | chromatographic logP [1]: 1.66 |
| Nn1c(C(F)(F)F)cc(=O)n(-c2ccc3c(c2)NC(=O)CO3)c1=O [II-2] |  |  |  | logP a) [1, 5]: logP = 1.22^a) |
| Nn1c(C(F)(F)F)cc(=O)n(-c2cc3c(cc2F)OCC(=O)N3)c1=O [II-3] |  |  |  | logP a) [1, 5]: logP = 1.57^a) |

Further lines, with some results ahead:

| logP a) [1, 4] | SMILES | action against weeds (degree of damage to the plants) (weeds [2]) | action against weeds (degree of damage to the plants) (weeds [3]) | other results |
| --- | --- | --- | --- | --- |
| 2.60^a) | CC(C)(C)OC(=O)CN1C(=O)COc2cc(F)c(-n3c(=O)cc(C(F)(F)F)n(N)c3=O)cc21 [Example 9] | very strong action against weeds | very strong action against weeds |  |
| 2.38^a) | CC(C)OC(=O)CN1C(=O)COc2cc(F)c(-n3c(=O)cc(C(F)(F)F)n(N)c3=O)cc21 [Example 10] | very strong action against weeds | very strong action against weeds |  |
| 2.14^a) | CC(C)OC(=O)CN1C(=O)COc2ccc(-n3c(=O)cc(C(F)(F)F)n(N)c3=O)cc21 [Example 12] | very strong action against weeds | very strong action against weeds |  |
| 2.37^a) | CC(C)(C)OC(=O)CN1C(=O)COc2ccc(-n3c(=O)cc(C(F)(F)F)n(N)c3=O)cc21 [Example 13] |  |  |  |
| 2.36^a) | CC(=O)n1c(=O)sc2cc(F)c(-n3c(=O)cc(C(F)(F)F)n(N)c3=O)cc21 [Example 14] |  |  |  |
| 2.46^a) | COC(=O)C=C(CCl)n1c(=O)sc2cc(F)c(-n3c(=O)cc(C(F)(F)F)n(N)c3=O)cc21 [Example 22] |  |  |  |
| 3.17^a) | CC(C)COC(=O)n1c(=O)sc2cc(F)c(-n3c(=O)cc(C(F)(F)F)n(N)c3=O)cc21 [Example 23] |  |  |  |
| 2.98^a) | CCOC(=O)C=C(n1c(=O)sc2cc(F)c(-n3c(=O)cc(C(F)(F)F)n(N)c3=O)cc21)C(F)(F)F [Example 24] |  |  |  |
| 2.51^a) | CCOC(=O)C=CCn1c(=O)sc2cc(F)c(-n3c(=O)cc(C(F)(F)F)n(N)c3=O)cc21 [Example 25] |  |  |  |
| 2.19^a) | N#Cn1c(=O)sc2cc(F)c(-n3c(=O)cc(C(F)(F)F)n(N)c3=O)cc21 [Example 30] |  |  |  |
